Measurements as given in PMC4452912 (Viruses, 2015).
Where two headings read alike, the source gives them in different places.

Key:
ER α-glucosidase I = biological target: T1, ER α-glucosidase I (Rattus norvegicus, UniProt O88941); assay: Purified enzyme inhibition, ER α-glucosidase I; format: biochemical
T1 sequence (O88941 1-834): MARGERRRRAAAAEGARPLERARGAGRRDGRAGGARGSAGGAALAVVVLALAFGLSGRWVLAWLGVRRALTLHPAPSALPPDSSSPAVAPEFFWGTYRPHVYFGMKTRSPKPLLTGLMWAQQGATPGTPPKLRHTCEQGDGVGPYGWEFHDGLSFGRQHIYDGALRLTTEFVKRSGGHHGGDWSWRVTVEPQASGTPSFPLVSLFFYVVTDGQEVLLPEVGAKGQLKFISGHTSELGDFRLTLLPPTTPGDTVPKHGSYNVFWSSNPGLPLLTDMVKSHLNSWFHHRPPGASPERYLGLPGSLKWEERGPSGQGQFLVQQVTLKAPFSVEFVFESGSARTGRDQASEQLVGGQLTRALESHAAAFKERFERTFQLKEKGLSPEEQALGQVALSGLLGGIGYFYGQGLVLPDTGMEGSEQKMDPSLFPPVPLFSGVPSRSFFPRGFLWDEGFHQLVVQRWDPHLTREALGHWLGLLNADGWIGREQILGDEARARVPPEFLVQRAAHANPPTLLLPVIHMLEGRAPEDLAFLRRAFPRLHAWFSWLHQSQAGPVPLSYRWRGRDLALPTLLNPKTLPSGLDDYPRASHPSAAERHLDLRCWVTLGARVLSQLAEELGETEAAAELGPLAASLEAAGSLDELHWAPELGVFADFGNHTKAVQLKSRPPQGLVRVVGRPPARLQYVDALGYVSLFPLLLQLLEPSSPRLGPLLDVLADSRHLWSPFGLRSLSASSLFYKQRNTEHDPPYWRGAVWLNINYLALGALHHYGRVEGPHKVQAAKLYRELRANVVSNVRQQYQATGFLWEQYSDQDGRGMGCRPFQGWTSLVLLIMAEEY

ER α-glucosidase II = ER α-glucosidase II (Rattus norvegicus, UniProt A0A8I6GFL3); assay: Purified enzyme inhibition, ER α-glucosidase II; format: biochemical; conditions: rat liver enzyme
ER α-glucosidase II, sequence (A0A8I6GFL3 33-944): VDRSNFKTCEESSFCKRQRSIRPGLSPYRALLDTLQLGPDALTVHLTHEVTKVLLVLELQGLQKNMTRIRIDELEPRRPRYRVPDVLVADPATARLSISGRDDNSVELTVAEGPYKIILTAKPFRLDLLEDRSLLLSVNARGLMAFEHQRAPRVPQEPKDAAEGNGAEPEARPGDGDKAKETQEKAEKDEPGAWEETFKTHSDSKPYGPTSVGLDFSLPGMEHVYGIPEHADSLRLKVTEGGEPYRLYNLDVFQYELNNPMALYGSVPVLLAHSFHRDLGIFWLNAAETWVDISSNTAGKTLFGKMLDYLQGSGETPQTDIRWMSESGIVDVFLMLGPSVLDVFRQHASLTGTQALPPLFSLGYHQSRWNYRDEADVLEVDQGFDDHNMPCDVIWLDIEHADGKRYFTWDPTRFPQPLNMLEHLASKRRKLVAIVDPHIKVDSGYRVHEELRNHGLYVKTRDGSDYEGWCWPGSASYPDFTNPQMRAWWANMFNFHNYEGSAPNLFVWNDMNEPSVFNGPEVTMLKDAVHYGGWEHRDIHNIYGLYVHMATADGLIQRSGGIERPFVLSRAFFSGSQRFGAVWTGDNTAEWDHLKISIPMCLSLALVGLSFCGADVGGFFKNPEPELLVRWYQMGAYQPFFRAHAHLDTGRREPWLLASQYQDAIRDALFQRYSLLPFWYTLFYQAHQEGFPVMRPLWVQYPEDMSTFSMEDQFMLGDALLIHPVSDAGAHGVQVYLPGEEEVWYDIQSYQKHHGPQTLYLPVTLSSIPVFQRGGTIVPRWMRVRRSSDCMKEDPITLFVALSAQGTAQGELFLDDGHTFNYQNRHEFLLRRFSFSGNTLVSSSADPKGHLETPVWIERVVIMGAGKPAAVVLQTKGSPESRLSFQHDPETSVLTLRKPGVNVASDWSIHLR

[1] = system: ER α-glucosidases I and II; assay: Cellular free oligosaccharide (FOS) assay in HL60 cells; format: cell-based, human; conditions: 24 h, mono- and tri-glucosylated FOS
in vitro [2] = format: cell-based; conditions: African green monkey
in vitro [3] = format: cell-based, canine; conditions: dog
[4] = system: Venezuelan Equine Encephalitis virus (VEEV, TC-83 vaccine strain); assay: microbe, parasite or virus in culture; format: cell-based; conditions: Vero, 72 h, read-out: IC50 VEEV
in vitro [5] = format: in vitro ADME; conditions: human, Caco-2
in vitro [6] = format: in vitro ADME; conditions: human, plasma
in vitro [7] = format: in vitro ADME; conditions: rat, plasma
in vitro [8] = format: in vitro ADME; conditions: mouse, plasma
in vitro [9] = format: in vitro ADME; conditions: human, microsomes
in vitro [10] = format: in vitro ADME; conditions: dog, microsomes
in vitro [11] = format: in vitro ADME; conditions: rat, microsomes
CYP2C9 = CYP2C9 (Homo sapiens, UniProt P11712); assay: CYP inhibition in human liver microsomes, CYP2C9; format: in vitro ADME
CYP2C9, sequence (P11712 whole entry): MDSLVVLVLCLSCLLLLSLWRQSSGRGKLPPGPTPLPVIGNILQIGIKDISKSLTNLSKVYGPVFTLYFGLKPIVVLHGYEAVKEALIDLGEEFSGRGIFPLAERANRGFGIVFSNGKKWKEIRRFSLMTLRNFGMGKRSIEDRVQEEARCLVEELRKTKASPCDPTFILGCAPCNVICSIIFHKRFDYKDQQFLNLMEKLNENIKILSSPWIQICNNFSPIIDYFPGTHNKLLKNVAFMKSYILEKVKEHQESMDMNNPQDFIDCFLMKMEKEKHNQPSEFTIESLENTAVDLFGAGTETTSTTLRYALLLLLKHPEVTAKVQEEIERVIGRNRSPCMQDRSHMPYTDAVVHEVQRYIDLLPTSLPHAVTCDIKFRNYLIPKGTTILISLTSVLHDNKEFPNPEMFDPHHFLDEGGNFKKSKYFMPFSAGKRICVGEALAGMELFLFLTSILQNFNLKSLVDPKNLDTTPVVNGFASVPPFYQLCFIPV

CYP2C19 = CYP2C19 (Homo sapiens, UniProt P33261); assay: CYP inhibition in human liver microsomes, CYP2C19; format: in vitro ADME
CYP2C19, sequence (P33261 whole entry): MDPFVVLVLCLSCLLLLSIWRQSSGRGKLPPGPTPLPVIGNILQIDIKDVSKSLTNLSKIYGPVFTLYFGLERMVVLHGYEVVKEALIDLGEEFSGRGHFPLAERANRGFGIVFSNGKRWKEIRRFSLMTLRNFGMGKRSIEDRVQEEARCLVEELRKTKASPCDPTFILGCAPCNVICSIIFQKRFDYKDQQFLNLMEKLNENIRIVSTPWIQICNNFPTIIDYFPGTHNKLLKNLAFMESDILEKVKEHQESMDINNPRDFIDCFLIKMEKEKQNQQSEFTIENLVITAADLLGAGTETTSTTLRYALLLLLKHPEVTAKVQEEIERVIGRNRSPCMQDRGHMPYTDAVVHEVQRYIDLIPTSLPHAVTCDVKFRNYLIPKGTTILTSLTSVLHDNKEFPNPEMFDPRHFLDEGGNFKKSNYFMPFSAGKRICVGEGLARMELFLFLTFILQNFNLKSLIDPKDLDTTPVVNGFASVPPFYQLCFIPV

CYP2D6 = CYP2D6 (Homo sapiens, UniProt P10635); assay: CYP inhibition in human liver microsomes, CYP2D6; format: in vitro ADME
CYP2D6, sequence (P10635 whole entry): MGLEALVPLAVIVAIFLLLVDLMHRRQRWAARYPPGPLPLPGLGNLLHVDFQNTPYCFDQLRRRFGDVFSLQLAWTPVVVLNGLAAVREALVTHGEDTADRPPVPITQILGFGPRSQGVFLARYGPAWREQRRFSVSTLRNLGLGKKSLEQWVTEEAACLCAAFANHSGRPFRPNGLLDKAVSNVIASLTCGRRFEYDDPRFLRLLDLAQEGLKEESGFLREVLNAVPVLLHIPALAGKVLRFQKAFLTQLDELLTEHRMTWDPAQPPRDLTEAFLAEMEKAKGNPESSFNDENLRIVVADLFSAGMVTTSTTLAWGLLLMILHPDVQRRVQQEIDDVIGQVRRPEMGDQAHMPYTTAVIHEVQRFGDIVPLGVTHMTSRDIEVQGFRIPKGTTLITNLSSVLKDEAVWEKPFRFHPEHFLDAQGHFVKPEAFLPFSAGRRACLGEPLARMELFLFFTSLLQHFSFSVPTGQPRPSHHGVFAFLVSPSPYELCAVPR

CYP3A4 = CYP3A4 (Homo sapiens, UniProt P08684); assay: CYP inhibition in human liver microsomes, CYP3A4; format: in vitro ADME
CYP3A4, sequence (P08684 whole entry): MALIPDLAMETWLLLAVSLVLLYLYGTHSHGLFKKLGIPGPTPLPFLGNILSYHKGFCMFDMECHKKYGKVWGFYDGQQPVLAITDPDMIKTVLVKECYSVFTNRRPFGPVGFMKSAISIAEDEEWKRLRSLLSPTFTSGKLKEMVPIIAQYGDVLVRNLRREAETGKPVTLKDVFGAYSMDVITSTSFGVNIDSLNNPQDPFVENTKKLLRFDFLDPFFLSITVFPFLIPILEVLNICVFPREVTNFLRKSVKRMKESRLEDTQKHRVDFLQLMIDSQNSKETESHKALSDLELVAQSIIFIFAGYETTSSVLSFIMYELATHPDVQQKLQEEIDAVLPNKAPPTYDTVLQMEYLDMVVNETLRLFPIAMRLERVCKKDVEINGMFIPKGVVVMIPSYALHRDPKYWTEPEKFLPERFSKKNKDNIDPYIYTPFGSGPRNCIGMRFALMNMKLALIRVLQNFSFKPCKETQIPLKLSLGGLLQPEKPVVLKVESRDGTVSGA

hERG = biological target: T2, hERG (Homo sapiens, UniProt Q12809); assay: Functional hERG assay, automated whole-cell patch clamp in CHO cells; format: cell-based
T2 construct: expressed in transfected cells; host or cells: CHO
T2 sequence (Q12809 whole entry): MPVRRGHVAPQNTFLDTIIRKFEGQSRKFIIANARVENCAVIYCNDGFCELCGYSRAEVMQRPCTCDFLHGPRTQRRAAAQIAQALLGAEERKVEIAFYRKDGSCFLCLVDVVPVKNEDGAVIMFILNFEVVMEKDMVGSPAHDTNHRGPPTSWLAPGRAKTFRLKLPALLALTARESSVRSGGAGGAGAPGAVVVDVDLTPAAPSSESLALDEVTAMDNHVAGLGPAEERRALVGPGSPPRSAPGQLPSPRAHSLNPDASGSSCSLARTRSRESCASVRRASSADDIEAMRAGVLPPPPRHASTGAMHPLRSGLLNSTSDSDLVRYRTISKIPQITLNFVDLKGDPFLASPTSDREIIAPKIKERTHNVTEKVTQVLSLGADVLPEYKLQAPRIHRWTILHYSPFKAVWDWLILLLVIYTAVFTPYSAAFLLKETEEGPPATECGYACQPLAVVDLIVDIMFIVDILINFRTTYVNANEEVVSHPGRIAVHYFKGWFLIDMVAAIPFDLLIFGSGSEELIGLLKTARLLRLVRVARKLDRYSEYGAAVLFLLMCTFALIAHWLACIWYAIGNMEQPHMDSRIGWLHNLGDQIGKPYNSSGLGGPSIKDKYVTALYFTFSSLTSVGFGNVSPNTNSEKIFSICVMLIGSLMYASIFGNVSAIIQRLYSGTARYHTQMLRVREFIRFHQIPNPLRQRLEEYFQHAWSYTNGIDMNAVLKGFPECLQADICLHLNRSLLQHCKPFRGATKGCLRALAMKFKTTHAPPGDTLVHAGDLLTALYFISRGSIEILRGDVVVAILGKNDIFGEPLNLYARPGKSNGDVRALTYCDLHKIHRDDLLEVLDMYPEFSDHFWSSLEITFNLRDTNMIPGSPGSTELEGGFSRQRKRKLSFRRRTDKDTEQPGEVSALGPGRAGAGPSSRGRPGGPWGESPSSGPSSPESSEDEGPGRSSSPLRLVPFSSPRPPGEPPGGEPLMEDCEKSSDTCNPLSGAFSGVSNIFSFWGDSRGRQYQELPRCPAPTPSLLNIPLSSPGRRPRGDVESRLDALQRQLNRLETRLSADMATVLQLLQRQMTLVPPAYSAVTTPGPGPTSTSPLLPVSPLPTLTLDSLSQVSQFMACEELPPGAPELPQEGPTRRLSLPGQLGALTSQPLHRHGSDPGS

DENV2 strain S221 [12] = format: in vivo, AG129 mice
DENV2 strain S221 [13] = assay: Dengue viral load by qRT-PCR in serum and tissues of AG129 mice; format: in vivo; conditions: 100 mg/kg TID
[14] = system: circulating cytokines and chemokines; assay: Serum cytokine levels in DENV infected AG129 mice (23-plex); format: in vivo; conditions: 100 mg/kg TID
[15] = 72 h post infection, vs vehicle

Structure (SMILES): OC[C@@H]1[C@@H](O)[C@H](O)[C@@H](O)CN1CCCCCCCCC1CCCO1 (stereo partly drawn) [UV-12]
- IC50 (ER α-glucosidase I): 0.14 ± 0.1 µM
- IC50 (ER α-glucosidase II; Glc1 substrate, mean and SD, triplicate, read-out: IC50 α-glc II, Glc1): 0.83 ± 0.37 µM
- IC50 (ER α-glucosidase II; Glc2 substrate, mean and SD, triplicate, read-out: IC50 α-glc II, Glc2): 1.1 ± 0.48 µM
- IC50 (ER α-glucosidase II; range over the two activities (Glc2, Glc1), read-out: IC50 for α-glucosidase II): 0.83 to 1.1 µM
- inhibition of ER α-glucosidase enzymes in cell-based FOS assay [1]: inhibited
- CC50 at 5 days (in vitro [2]): > 500 µM
- CC50 at 5 days (in vitro [3]): > 500 µM
- IC50 [4]: 69.4 µM
- efflux ratio at 10 µM (in vitro [5]): 4
- fraction unbound at 6 h, 10 μM (in vitro [6]): 0.32
- fraction unbound at 6 h, 10 μM (in vitro [7]): 0.32
- fraction unbound at 6 h, 10 μM (in vitro [8]): 0.36
- Liver microsome metabolic stability CLintr (in vitro [9]): <0.6 mL/min/g liver
- half-life at 0.5 µM (in vitro [9]): > 30 min
- parent drug remained after 30 min (in vitro [9]; 0.5 h, 0.5 µM): 100%
- Liver microsome metabolic stability CLintr (in vitro [10]): <0.6 mL/min/g liver
- half-life at 0.5 µM (in vitro [10]): > 30 min
- parent drug remained after 30 min (in vitro [10]; 0.5 h, 0.5 µM): 100%
- Liver microsome metabolic stability CLintr (in vitro [11]): <0.6 mL/min/g liver
- half-life at 0.5 µM (in vitro [11]): > 30 min
- parent drug remained after 30 min (in vitro [11]; 0.5 h, 0.5 µM): 100%
- IC50 (CYP2C9): > 100 µM
- IC50 (CYP2C19): > 100 µM
- IC50 (CYP2D6): > 100 µM
- IC50 (CYP3A4): > 100 µM
- inhibition at 30 µM (hERG; human, CHO cells stably transfected with hERG, 30 μM, read-out: inhibition of hERG current): 18.2%
- inhibition at 100 µM (hERG; human, CHO cells stably transfected with hERG, 100 μM, read-out: inhibition of hERG current): 4.6%
- inhibition at 300 µM (hERG; human, CHO cells stably transfected with hERG, 300 μM, read-out: inhibition of hERG current): 19.1%
- IC50 (hERG; patch clamp, CHO-hERG, read-out: hERG Inhibition): > 300 µM
- animals protected (survival) (DENV2 strain S221 [12]; 20 mg/kg PO TID 7 days from 1 h before challenge): 100%
- animals protected (survival) (DENV2 strain S221 [12]; 100 mg/kg PO TID 7 days from 1 h before challenge): 100%
- viral loads in serum, liver or spleens (DENV2 strain S221 [13]; 72 and 96 h): not reduced
- decrease in viral load, kidneys (DENV2 strain S221 [13]; [15]): 12.9 fold
- decrease in viral load, small intestine (DENV2 strain S221 [13]; [15]): 6.1 fold
- increase in virus titers, spleens (DENV2 strain S221 [13]; 72 h time point): 5 fold
- decrease in viral load, kidneys (DENV2 strain S221 [13]; 96 h post infection, vs vehicle): 5.23 fold
- Levels of IL-9 and eotaxin [14]: not different
- reduction in MCP-1 ([14]; 72 h, p = 0.0641): not significant
- KC levels ([14]; 72 h only): significantly higher
- Levels of IFN-γ ([14]; only at 72 h): significantly reduced
- MIP-1β, RANTES, and IL-10 levels ([14]; only at 96 h): reduced
- overall circulating cytokine levels ([14]; vs vehicle): dampened
